The subject of data set [1] is Yersinia pestis. Description: Antibacterial activity against Yersinia pestis delta CO92 by broth macrodilution method. The format is functional.
In data set [2] the test system is Homo sapiens. Put plainly: Free AUC (0 to 24 hrs) in human plasma at 500 mg, po. Format: ADME, organism-based. To be noted: in vivo.
The subject of data set [3] is Homo sapiens. Description: Free Cmax in human at 500 mg, po. The format is ADME, organism-based. To be noted: in vivo.
Data set [4] is described as follows: Half life in human plasma at 500 mg, po. Format: ADME, organism-based.
In data set [5] the test system is Homo sapiens. Put plainly: Free Cmax in human at 1 g, iv. Format: ADME, organism-based. The settings on record: in vivo.
Data set [6] is described as follows: Half life in human plasma at 1 g, iv. The format is ADME, organism-based.
The test system of data set [7] is Homo sapiens. Put plainly: Free Cmin in human at 1 g, iv. The settings on record: in vivo. The format is ADME, organism-based.

Converted amounts (≈) assume the structure as drawn.

In general, MBC refers to the smallest concentration meeting the test's criterion for killing. A lower MBC goes with more potent killing. As usually defined, the MIC is the smallest concentration in the dilution series that meets the test's criterion for growth inhibition. Higher therefore signals weaker potency. What is called half-life is the time needed for the level to fall by half in the phase considered. In the case of `C[C@H]1COc2c(N3CCN(C)CC3)c(F)cc3c(=O)c(C(=O)O)cn1c23.C[C@H]1COc2c(N3CCN(C)CC3)c(F)cc3c(=O)c(C(=O)O)cn1c23.O` [LEVOFLOXACIN], in data set [1], the MBC was determined as 0.125 µg/mL and 0.06 µg/mL was the least that counted as inhibitory (MIC). In data set [2], the fAUC was 36000 ng·h/mL. Moreover, the fCmax in data set [3] is 3.6 mg/L. The half-life in data set [4] was 7 h.
In data set [1], `[H]/N=C(/N)N[C@H]1[C@H](O)[C@@H](O)[C@H](O[C@@H]2O[C@@H](C)[C@](O)(C=O)[C@H]2O[C@@H]2O[C@@H](CO)[C@H](O)[C@@H](O)[C@@H]2NC)[C@@H](N/C(N)=N\[H])[C@@H]1O` [STREPTOMYCIN] showed an MBC of 2 µg/mL (≈ 3.44 µM) and an MIC of 2 µg/mL (≈ 3.44 µM). For the same compound, in data set [5], the fCmax turned out to be 38 mg/L. Further, in data set [6], the half-life was 2.5 h. Moreover, in data set [7], the fCmin is listed as 2 mg/L.

For the origin of these results see ChEMBL document CHEMBL1155150 (Antimicrob Agents Chemother, 2007).
